Results taken from US11541055B2, “Inhibitors of human immunodeficiency virus replication” (ViiV Healthcare UK (No. 5) LIMITED, priority 2018, dated 2023).

Assays:
[1] = tested on: recombinant NL4-3 virus (Renilla luciferase) in MT-2 cells; assay: HIV cell culture assay (antiviral activity, luciferase readout); assay type: cell-based; conditions: Renilla, NL43
Protocol: HIV cell culture assay—MT-2 cells, 293T cells and the proviral DNA clone of NL4-3 virus were obtained from the NIH AIDS Research and Reference Reagent Program. MT-2 cells were propagated in RPMI 1640 media supplemented with 10% heat inactivated fetal bovine serum (FBS), […]. The 293T cells were propagated in DMEM media supplemented with 10% heat inactivated FBS, […] penicillin G and […] streptomycin. A recombinant NL40.3 proviral clone, in which a section of the nef gene was replaced with the Renilla luciferase gene, was used to make the reference virus used in these studies. The recombinant virus was prepared through transfection of the recombinant NL4-3 proviral clone into 293T cells using Transit-293 Transfection Reagent from Minis Bio LLC (Madison, Wis.). Supernatent was harvested after 2-3 days and the amount of virus present was titered in MT-2 cells using luciferase enzyme activity as a marker by measuring luciferase enzyme activity. Luciferase was quantitated using the EnduRen Live Cell Substrate from Promega (Madison, Wis.). Antiviral activities of compounds toward the recombinant virus were quantified by measuring luciferase activity in MT-2 cells infected for 4-5 days with the recombinant virus in the presence of serial dilutions of the compound.
The 50% effective concentration (EC50) was calculated by using the exponential form of the median effect equation where (Fa)=1/[1+(ED50/drug conc.)m] (Johnson V A, Byington R T. Infectivity Assay. In Techniques in HIV Research. ed. Aldovini A, Walker B D. 71-76. New York: Stockton Press. 1990). The 50% inhibitory concentration (EC50) was calculated by using the exponential form of the median effect equation where percent inhibition=1/[1+(EC50/drug concentration)m], where m is a parameter that reflects the slope of the concentration-response curve.

[2] = Compound cytotoxicity, XTT-based colorimetric assay; assay type: cell-based; conditions: human; uninfected MT2 cells, day 4, XTT
Protocol: Compound cytotoxicity and the corresponding CC50 values were determined using the same protocol as described in the antiviral assay except that uninfected cells were used. Cytotoxicity was assessed on day 4 in uninfected MT2 cells by using a XTT (2,3-bis[2-Methoxy-4-nitro-5-sulfophenyl]-2H-tetrazolium-5-carboxyanilide inner salt)-based colorimetric assay (Sigma-Aldrich, St Louis, Mo.).

For COc1cnc(-c2ccc3c(=O)n(-c4ccc(Cl)c5c(NS(C)(=O)=O)nn(CC(F)F)c45)c([C@H](Cc4cc(F)cc(F)c4)NC(=O)Cn4nc(C(F)F)c5c4C(F)(F)[C@@H]4C[C@H]54)nc3c2)nc1 (atropisomer, axis not shown) [Example 124, N-[(1S)-1-{3-[4-chloro-1-(2,2-difluoroethyl)-3-methanesulfonamido-1H-indazol-7-yl]-7-(5-methoxypyrimidin-2-yl)-4-oxo-3,4-dihydroquinazolin-2-yl}-2-(3,5-difluorophenyl)ethyl]-2-[(2S,4R)-9-(difluoromethyl)-5,5-difluoro-7,8-diazatricyclo[4.3.0.0^2,^4]nona-1(6),8-dien-7-yl]acetamide], the EC50 [1] was 0.092 nM and the CC50 at 4 days [2] was > 500 nM.

For COc1ncc(-c2ccc3c(=O)n(-c4ccc(Cl)c5c(NS(C)(=O)=O)nn(CC(F)F)c45)c([C@H](Cc4cc(F)cc(F)c4)NC(=O)Cn4nc(C(F)F)c5c4C(F)(F)[C@@H]4C[C@H]54)nc3c2)cn1 (atropisomer, axis not shown) [Example 125, N-[(1S)-1-{3-[4-chloro-1-(2,2-difluoroethyl)-3-methanesulfonamido-1H-indazol-7-yl]-7-(2-methoxypyrimidin-5-yl)-4-oxo-3,4-dihydroquinazolin-2-yl}-2-(3,5-difluorophenyl)ethyl]-2-[(2S,4R)-9-(difluoromethyl)-5,5-difluoro-7,8-diazatricyclo[4.3.0.0^2,^4]nona-1(6),8-dien-7-yl]acetamide], the EC50 [1] was 0.06 nM and the CC50 at 4 days [2] was > 500 nM.

In the case of CCc1cc(C)nc(-c2ccc3c(=O)n(-c4ccc(Cl)c5c(NS(C)(=O)=O)nn(CC(F)F)c45)c([C@H](Cc4cc(F)cc(F)c4)NC(=O)Cn4nc(C(F)F)c5c4C(F)(F)[C@@H]4C[C@H]54)nc3c2)n1 (atropisomer, axis not shown) [Example 126, N-[(1S)-1-{3-[4-chloro-1-(2,2-difluoroethyl)-3-methanesulfonamido-1H-indazol-7-yl]-7-(4-ethy1-6-methylpyrimidin-2-y1)-4-oxo-3,4-dihydroquinazolin-2-yl}-2-(3,5-difluorophenyl)ethyl]-2-[(2S,4R)-9-(difluoromethyl)-5,5-difluoro-7,8-diazatricyclo[4.3.0.0^2,^4]nona-1(6),8-dien-7-yl]acetamide], the EC50 [1] is reported as 0.12 nM and the CC50 at 4 days [2] is reported as > 500 nM.

For CC(C)(C)S(=O)(=O)c1cccc(-c2ccc3c(=O)n(-c4ccc(Cl)c5c(NS(C)(=O)=O)nn(CC(F)F)c45)c([C@H](Cc4cc(F)cc(F)c4)NC(=O)Cn4nc(C(F)F)c5c4C(F)(F)[C@@H]4C[C@H]54)nc3c2)c1 (atropisomer, axis not shown) [Example 127], the EC50 [1] was 0.14 nM and the CC50 at 4 days [2] was > 500 nM.

With CS(=O)(=O)Nc1nn(CC(F)F)c2c(-n3c([C@H](Cc4cc(F)cc(F)c4)NC(=O)Cn4nc(C(F)F)c5c4C(F)(F)[C@@H]4C[C@H]54)nc4cc(-c5nccc(C(F)(F)F)n5)ccc4c3=O)ccc(Cl)c12 (atropisomer, axis not shown) [Example 128, N-[(1S)-1-{3-[4-chloro-1-(2,2-difluoroethyl)-3-methanesulfonamido-1H-indazol-7-yl]-4-oxo-7-[4-(trifluoromethyl)pyrimidin-2-yl]-3,4-dihydroquinazolin-2-yl}-2-(3,5-difluorophenyl)ethyl]-2-[(2S,4R)-9-(difluoromethyl)-5,5-difluoro-7,8-diazatricyclo[4.3.0.0^2,^4]nona-1(6),8-dien-7-yl]acetamide] the EC50 [1] was 0.079 nM and the CC50 at 4 days [2] was > 500 nM.

With COc1ccc(-c2ccc3c(=O)n(-c4ccc(Cl)c5c(NS(C)(=O)=O)nn(CC(F)F)c45)c([C@H](Cc4cc(F)cc(F)c4)NC(=O)Cn4nc(C(F)F)c5c4C(F)(F)[C@@H]4C[C@H]54)nc3c2)nn1 (atropisomer, axis not shown) [Example 129, N-[(1S)-1-{3-[4-chloro-1-(2,2-difluoroethyl)-3-methanesulfonamido-1H-indazol-7-yl]-7-(6-methoxypyridazin-3-yl)-4-oxo-3,4-dihydroquinazolin-2-yl}-2-(3,5-difluorophenyl)ethyl]-2-[(2S,4R)-9-(difluoromethyl)-5,5-difluoro-7,8-diazatricyclo[4.3.0.0^2,^4]nona-1(6),8-dien-7-yl]acetamide] the EC50 [1] was 0.054 nM and the CC50 at 4 days [2] was > 500 nM.

In the case of CC(C)(C)S(=O)(=O)c1ccccc1-c1ccc2c(=O)n(-c3ccc(Cl)c4c(NS(C)(=O)=O)nn(CC(F)F)c34)c([C@H](Cc3cc(F)cc(F)c3)NC(=O)Cn3nc(C(F)F)c4c3C(F)(F)[C@@H]3C[C@H]43)nc2c1 (atropisomer, axis not shown) [Example 130], the EC50 [1] is reported as 0.13 nM and the CC50 at 4 days [2] is reported as > 500 nM.

With Cc1cc(-c2ccc3c(=O)n(-c4ccc(Cl)c5c(NS(C)(=O)=O)nn(CC(F)F)c45)c([C@H](Cc4cc(F)cc(F)c4)NC(=O)Cn4nc(C(F)F)c5c4C(F)(F)[C@@H]4C[C@H]54)nc3c2)nc(C)n1 (atropisomer, axis not shown) [Example 131, N-[(1S)-1-{3-[4-chloro-1-(2,2-difluoroethyl)-3-methanesulfonamido-1H-indazol-7-yl]-7-(2,6-dimethylpyrimidin-4-y1)-4-oxo-3,4-dihydroquinazolin-2-y1}-2-(3,5-difluorophenyl)ethyl]-2-[(2S,4R)-9-(difluoromethyl)-5,5-difluoro-7,8-diazatricyclo[4.3.0.0^2,^4]nona-1(6),8-dien-7-yl]acetamide] the EC50 [1] was 0.038 nM and the CC50 at 4 days [2] was > 500 nM.

For CS(=O)(=O)Nc1nn(CC(F)F)c2c(-n3c([C@H](Cc4cc(F)cc(F)c4)NC(=O)Cn4nc(C(F)F)c5c4C(F)(F)[C@@H]4C[C@H]54)nc4cc(-c5nccc(C(F)F)n5)ccc4c3=O)ccc(Cl)c12 (atropisomer, axis not shown) [Example 132], the EC50 [1] was 0.06 nM and the CC50 at 4 days [2] was > 500 nM.

For Cc1nnc(-c2ccc3c(=O)n(-c4ccc(Cl)c5c(NS(C)(=O)=O)nn(CC(F)F)c45)c([C@H](Cc4cc(F)cc(F)c4)NC(=O)Cn4nc(C(F)F)c5c4C(F)(F)[C@@H]4C[C@H]54)nc3c2)nc1C (atropisomer, axis not shown) [Example 133, N-[(1S)-1-{3-[4-chloro-1-(2,2-difluoroethyl)-3-methanesulfonamido-1H-indazol-7-yl]-7-(5,6-dimethyl-1,2,4-triazin-3-yl)-4-oxo-3,4-dihydroquinazolin-2-yl}-2-(3,5-difluorophenyl)ethyl]-2-[(2S,4R)-9-(difluoromethyl)-5,5-difluoro-7,8-diazatricyclo[4.3.0.0^2,^4]nona-1(6),8-dien-7-yl]acetamide], the EC50 [1] was 0.04 nM and the CC50 at 4 days [2] was > 500 nM.

For Cc1ccc(-c2ccc3c(=O)n(-c4ccc(Cl)c5c(NS(C)(=O)=O)nn(CC(F)F)c45)c([C@H](Cc4cc(F)cc(F)c4)NC(=O)Cn4nc(C(F)F)c5c4C(F)(F)[C@@H]4C[C@H]54)nc3c2)nn1 (atropisomer, axis not shown) [Example 134, N-[(1S)-1-{3-[4-chloro-1-(2,2-difluoroethyl)-3-methanesulfonamido-1H-indazol-7-yl]-7-(6-methylpyridazin-3-yl)-4-oxo-3,4-dihydroquinazolin-2-yl}-2-(3,5-difluorophenyl)ethyl]-2-[(2S,4R)-9-(difluoromethyl)-5,5-difluoro-7,8-diazatricyclo[4.3.0.0^2,^4]nona-1(6),8-dien-7-yl]acetamide], the EC50 [1] was 0.032 nM and the CC50 at 4 days [2] was > 500 nM.
